Measured values from PMC10698032, “A monoacylglycerol lipase inhibitor showing therapeutic efficacy in mice without central side effects or dependence” (Nature Communications, 2023).

How the values were obtained:
[1] = molecular target: T1, MAGL (monoacylglycerol lipase) (Homo sapiens, UniProt Q99685); assay: fluorescent 2-AG hydrolysis assay on human MAGL-overexpressing HEK293T membranes; assay type: biochemical
T1 construct: gene MGLL; full-length, C-terminal FLAG-tag, HEK293T membrane fractions

[2] = molecular target: T2, MAGL (monoacylglycerol lipase) (Mus musculus, UniProt O35678); assay: gel-based competitive ABPP with FP-TAMRA at […]; assay type: cell-based; set-up: gene Mgll; endogenous, mouse brain membrane proteome; settings: read-out: % inhibition at 10 μM
T2 sequence (O35678 1-303): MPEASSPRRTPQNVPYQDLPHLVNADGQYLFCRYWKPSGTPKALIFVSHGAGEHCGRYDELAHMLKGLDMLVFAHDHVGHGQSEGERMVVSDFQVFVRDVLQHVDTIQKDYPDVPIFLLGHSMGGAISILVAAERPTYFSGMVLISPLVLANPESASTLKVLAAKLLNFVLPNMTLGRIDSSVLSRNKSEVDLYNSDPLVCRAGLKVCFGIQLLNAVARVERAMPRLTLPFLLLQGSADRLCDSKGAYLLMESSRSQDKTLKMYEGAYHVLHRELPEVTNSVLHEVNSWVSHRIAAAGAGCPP

[3] = molecular target: T2, MAGL (monoacylglycerol lipase); assay: biochemical; set-up: gene Mgll; endogenous, mouse brain membrane proteome; gel-based competitive ABPP with FP-TAMRA on mouse brain membrane proteome, MAGL labelling, n=1; settings: read-out: Inhibition ABPP assay (%)
Text: Subsequently, the qualified hits underwent testing in an orthogonal gel-based competitive activity-based protein profiling (ABPP) assay, a powerful technique for obtaining an initial selectivity profile of these compounds. The assay employed fluorophosphonate-tetramethylrhodamine (FP-TAMRA), a broad-spectrum activity-based probe designed to target a wide range of serine hydrolases, including endocannabinoid hydrolases like MAGL, fatty acid amide hydrolase (FAAH), and alpha/beta hydrolase domain-containing protein 6 (ABHD6)[30],[31]. […] This observation could indicate potential species differences or a short residence time for the target. A correlation between inhibitor potency in the primary substrate-based assay and the orthogonal ABPP assay was, however, noted for the majority of compounds (Fig. 1f). […] This characteristic positions it as a promising candidate for further optimization. 71 Figure S1 72 73 74 75 76 Supplementary Figure 1 – Orthogonal competitive ABPP assay for hit validation and selectivity assessment. 77 ABPP was performed on mouse brain membrane proteome using FP-TAMRA. Proteome was pre-incubated with 78 inhibitor (10 µM, 30 min), followed by incubation with FP-TAMRA (100 nM, 10 min). JZL184 was included as 79 positive control on all gels. […] Physicochemical properties (cLogP, tPSA, HBD, HBA) were calculated using ChemDraw Professional 31 16.0.

T1 sequence (Q99685 whole entry): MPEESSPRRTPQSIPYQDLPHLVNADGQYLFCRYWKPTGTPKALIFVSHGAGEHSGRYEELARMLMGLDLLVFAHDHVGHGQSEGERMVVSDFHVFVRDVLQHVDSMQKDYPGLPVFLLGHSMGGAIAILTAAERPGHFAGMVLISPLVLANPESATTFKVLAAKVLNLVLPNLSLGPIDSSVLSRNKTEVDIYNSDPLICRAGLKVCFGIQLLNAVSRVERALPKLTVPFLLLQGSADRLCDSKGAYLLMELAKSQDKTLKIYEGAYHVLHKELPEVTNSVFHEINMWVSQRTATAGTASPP

For `CCOC(=O)C[S+]([O-])c1ccc(C(=O)N2CCN(c3cccc(C)c3)C(C)C2)cc1[N+](=O)[O-]` (stereo not drawn) [compound 1, ethyl 2-((4-(3-methyl-4-(m-tolyl)piperazine-1-carbonyl)-2-nitrophenyl)sulfinyl)acetate], which IC50 [1] is on record?
Its IC50 is 0.398 µM.

And the inhibition at 10 µM [2]?
The inhibition at 10 µM was greater than 25%.

What about the inhibition at 10 µM [3] of the same compound?
The inhibition at 10 µM was 86%.
